Measurements from paper PMC7866225, “Microwave-Assisted Synthesis of (Piperidin-1-yl)quinolin-3-yl)methylene)hydrazinecarbothioamides as Potent Inhibitors of Cholinesterases: A Biochemical and In Silico Approach” (Molecules, 2021).
Where “and” joins values, the source holds several entries; their conditions need not be identical. Equal values may be shown once.

Columns and labels:
[1] = tested on: HepG2 cells; assay: In vitro cytotoxicity, MTT assay; type: cell-based; settings: HepG2, MTT, 0–1000 µg/mL, 24 h
Experimental: (§1) HepG2 cell line was obtained from the cell culture laboratory established in The University of Lahore. These cell lines were preserved in cryo vials present in liquid nitrogen. Cryo vials were revived for further processing.
(§2) The cryo vials obtained from liquid nitrogen cylinder were thawed. Then HepG2 cells were cultured in the culturing flask in which DMEM-HG along with 10% fetal bovine serum (FBS), supplemented with […] (Sigma) and 100 U/mL streptomycin (Sigma) were added. Cultures were maintained in a humidified incubator supplied with 5% CO2 at 37 °C. Experiments were performed in triplicates. When cultured HepG2 cells achieved 70–80% confluence their subculturing was conducted. For splitting, the cells attached to the walls of the culturing flask were washed with 1× phosphate buffer saline (PBS) and incubated with 0.05% trypsin-EDTA until cells detached from the surface of culturing flask. The detachment of the cells was confirmed by observing the flask under the inverted microscope. A few drops of FBS were added to the flask and mixed well by stirring. The mixture was centrifuged at 2000 rpm for 5 min. After centrifugation the supernatant was removed, and pellet was resuspended. HepG2 cells were cultured onto 96-well plates for measurement of cell viability. Treatment was given for both compounds at a concentration of 0–1000 µg/mL for 24 h.
(§3) After 4 h formazan crystals were solubilized with 10% sodium dodecylsulphate (SDS) (Invitrogen Inc.) and absorbance was taken at 570 nm. Percentage viability was calculated according to the following formula:% Viable cells = ((abs sample − abs blank) / (abs control − abs blank)) × 100 (1) where abs stands for absorbance.

[2] = In vitro cytotoxicity, MTT assay; type: cell-based; settings: human, HepG2 cells, 24 h, control = 100, read-out: Cell Viability; for viability at 24 h, 50 μg/mL: HepG2, 50 μg/mL; for viability at 24 h, 100 μg/mL: HepG2, 100 μg/mL; for viability at 24 h, 200 μg/mL: HepG2, 200 μg/mL; for viability at 24 h, 500 μg/mL: HepG2, 500 μg/mL; for viability at 24 h, 1000 μg/mL: HepG2, 1000 μg/mL
Experimental: as §1, §2, §3

[3] = target: Acetylcholinesterase (AChE) (Electrophorus electricus, UniProt O42275); assay: biochemical; settings: Ellman's method, triplicate; read-out: Acetylcholinesterase (AChE) IC50 ± SEM
Experimental: (§4) Modified Ellman’s method was adopted to investigate the inhibitory potential of newly synthesized compounds against cholinesterase enzymes. The assay protocol involved 96-well plates (100 μL per well). Each well contained 20 μL of assay buffer solution, 10 μL of test sample, and 10 μL of 0.5 U/mg of AChE (for AChE inhibition assay) or 10 μL of 3.4 U/mg of BChE (for BChE inhibition assay). This mixture was incubated at 25 °C for 10 min followed by the addition of substrate (10 μL). For AChE inhibition assay, acetylthiocholine iodide (ATCI, 1 mM) while for BChE assay, butyrylthiocholine chloride (BTCCl, 1 mM), was added. This mixture was incubated for 15 min at 37 °C. Ellman reagent (5,5′-dithio-bis(2-nitrobenzoic acid), DTNB, 3 mM) was added. […] Blank assay was also performed. All the analyses were performed in triplicate. IC50 values were also calculated for the synthesized compounds in GraphPad prism 5.0. using nonlinear regression method.

[4] = target: Butyrylcholinesterase (BChE) (Equus caballus, UniProt P81908); assay: biochemical; settings: Ellman's method, triplicate; read-out: Butyrylcholinesterse (BChE) IC50 ± SEM
Experimental: as §4

Chain of Acetylcholinesterase (AChE) (O42275 24-633): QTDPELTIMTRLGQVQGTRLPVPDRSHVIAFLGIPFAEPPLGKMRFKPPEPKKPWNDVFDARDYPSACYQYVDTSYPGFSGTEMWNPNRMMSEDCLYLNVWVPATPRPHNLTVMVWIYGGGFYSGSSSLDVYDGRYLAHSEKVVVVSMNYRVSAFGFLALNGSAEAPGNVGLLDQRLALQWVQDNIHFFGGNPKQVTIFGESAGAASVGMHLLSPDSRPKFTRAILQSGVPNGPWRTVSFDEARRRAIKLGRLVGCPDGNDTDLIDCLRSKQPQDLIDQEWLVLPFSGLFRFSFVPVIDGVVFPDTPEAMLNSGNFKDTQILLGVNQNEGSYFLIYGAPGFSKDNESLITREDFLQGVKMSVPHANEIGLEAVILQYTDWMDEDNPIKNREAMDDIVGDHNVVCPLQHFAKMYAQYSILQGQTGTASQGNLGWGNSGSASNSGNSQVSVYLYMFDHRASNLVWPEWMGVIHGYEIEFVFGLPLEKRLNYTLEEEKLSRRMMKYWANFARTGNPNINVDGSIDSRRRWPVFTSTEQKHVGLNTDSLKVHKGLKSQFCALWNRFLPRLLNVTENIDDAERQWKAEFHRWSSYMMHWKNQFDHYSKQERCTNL
Chain of Butyrylcholinesterase (BChE) (P81908 whole entry): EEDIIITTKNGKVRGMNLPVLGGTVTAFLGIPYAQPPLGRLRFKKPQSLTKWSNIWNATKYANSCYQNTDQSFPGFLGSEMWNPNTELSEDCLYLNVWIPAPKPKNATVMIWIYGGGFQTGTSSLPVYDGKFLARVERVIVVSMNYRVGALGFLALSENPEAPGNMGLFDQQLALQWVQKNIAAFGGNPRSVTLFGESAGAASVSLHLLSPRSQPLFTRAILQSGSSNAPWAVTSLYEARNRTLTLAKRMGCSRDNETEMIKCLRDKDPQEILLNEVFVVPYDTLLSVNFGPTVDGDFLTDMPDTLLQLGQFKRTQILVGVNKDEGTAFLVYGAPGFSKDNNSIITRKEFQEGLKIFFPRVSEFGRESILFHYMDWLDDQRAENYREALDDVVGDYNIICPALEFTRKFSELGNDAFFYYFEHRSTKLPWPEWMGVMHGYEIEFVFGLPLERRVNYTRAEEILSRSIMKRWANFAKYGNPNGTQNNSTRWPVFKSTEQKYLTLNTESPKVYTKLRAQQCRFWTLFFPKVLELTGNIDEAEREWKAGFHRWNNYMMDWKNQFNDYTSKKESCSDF

Compound | Status [1] | viability at 24 h, 50 μg/mL [2] | viability at 24 h, 100 μg/mL [2] | viability at 24 h, 200 μg/mL [2] | viability at 24 h, 500 μg/mL [2] | viability at 24 h, 1000 μg/mL [2] | IC50 [3] | IC50 [4]
Cc1ccc(NC(=S)NN=Cc2cc3cccc(C)c3nc2N2CCCCC2)c(C)c1 [Compound 6c, N-(2,4-Dimethylphenyl)-2-((8-methyl-2-(piperidin-1-yl)quinolin-3-yl)methylene)hydrazine carbothioamide] | Proliferative | 87.5% | 116% | 154% | 187% | 233% | 39.12 ± 0.27 µM | 24.59 ± 0.09 µM
Cc1cccc(C)c1NC(=S)NN=Cc1cc2cccc(C)c2nc1N1CCCCC1 [Compound 6d, N-(2,6-Dimethylphenyl)-2-((8-methyl-2-(piperidin-1-yl)quinolin-3-yl)methylene)hydrazine carbothioamide] | Proliferative | 75% | 93.9% | 91.3% | 129% | 173% | < 20 µM and 12.9 µM | < 20 µM and 17.9 µM
Cc1cccc2cc(C=NNC(=S)Nc3ccccc3Cl)c(N3CCCCC3)nc12 [Compound 6e, N-(2-Chlorophenyl)-2-((8-methyl-2-(piperidin-1-yl)quinolin-3-yl)methylene)hydrazine carbothioamide] | Proliferative | 102% | 112% | 167% | 180% | 212% | 32.11 ± 0.15 µM | 37.1 ± 0.59 µM
Cc1cccc2cc(C=NNC(=S)Nc3cccc(Cl)c3)c(N3CCCCC3)nc12 [Compound 6f, N-(3-Chlorophenyl)-2-((8-methyl-2-(piperidin-1-yl)quinolin-3-yl)methylene)hydrazine carbothioamide] | Proliferative | 110% | 110% | 109% | 139% | 189% | < 20 µM and 9.68 µM | < 20 µM and 11.6 µM
Cc1cccc2cc(C=NNC(=S)Nc3ccc(Cl)cc3)c(N3CCCCC3)nc12 [Compound 6g, N-(4-Chlorophenyl)-2-((8-methyl-2-(piperidin-1-yl)quinolin-3-yl)methylene)hydrazine carbothioamide] | Proliferative | 113% | 106% | 111% | 150% | 214% | < 20 µM and 13.8 µM | < 20 µM and 18.6 µM
Cc1cccc2cc(C=NNC(=S)Nc3ccccc3F)c(N3CCCCC3)nc12 [Compound 6h, N-(2-Fluorophenyl)-2-((8-methyl-2-(piperidin-1-yl)quinolin-3-yl)methylene)hydrazine carbothioamide] | Proliferative | 100% | 110% | 126% | 151% | 202% | 40.23 ± 0.25 µM | 45.12 ± 0.19 µM
Cc1cccc2cc(C=NNC(=S)Nc3cccc(F)c3)c(N3CCCCC3)nc12 [Compound 6i, N-(3-Fluorophenyl)-2-((8-methyl-2-(piperidin-1-yl)quinolin-3-yl)methylene)hydrazine carbothioamide] | Proliferative | 95.5% | 102% | 131% | 112% | 186% | 15.8 ± 1.3 µM | 51.11 ± 0.28 µM
Cc1cccc2cc(C=NNC(=S)Nc3ccc(F)cc3)c(N3CCCCC3)nc12 [Compound 6j, N-(4-Fluorophenyl)-2-((8-methyl-2-(piperidin-1-yl)quinolin-3-yl)methylene)hydrazine carbothioamide] | Non-cytotoxic | 103% | 93.7% | 94.8% | 108% | 114% | 56.66 ± 0.41 µM | 51 ± 0.52 µM
CCc1ccc(NC(=S)NN=Cc2cc3cccc(C)c3nc2N2CCCCC2)cc1 [Compound 6k, N-(4-Ethylphenyl)-2-((8-methyl-2-(piperidin-1-yl)quinolin-3-yl)methylene)hydrazine carbothioamide] | Proliferative | 103% | 105% | 107% | 138% | 157% | 39.9 ± 0.85 µM | 32.01 ± 0.31 µM
Cc1cccc2cc(C=NNC(=S)NCc3ccccc3)c(N3CCCCC3)nc12 [Compound 6l, N-Benzyl-2-((8-methyl-2-(piperidin-1-yl)quinolin-3-yl)methylene)hydrazinecarbothioamide] | Proliferative | 103% | 105% | 107% | 138% | 157% | 57.25 ± 0.03 µM | 41 ± 0.89 µM
Cc1cccc2cc(C=NNC(=S)NCCN3CCOCC3)c(N3CCCCC3)nc12 [Compound 6m, 2-((8-Methyl-2-(piperidin-1-yl)quinolin-3-yl)methylene)-N-(2-morpholinoethyl)hydrazine carbothioamide] | Cytotoxic | 97.9% | 96.8% | 95.3% | 97.4% | 87.6% | 21 ± 2.3 µM | 35.1 ± 0.77 µM
